Data as given in ChEMBL document CHEMBL4359843, “Linear and Rationally Designed Stapled Peptides Abrogate TLR4 Pathway and Relieve Inflammatory Symptoms in Rheumatoid Arthritis Rat Model” (J Med Chem, 2019).
The source made the active and inactive calls. The rule behind the calls is not given here. Where a SMILES comes first, the peptide text is derived from it. Bridges are numbered along the chain shown (N, C = ends).

Tests used:
Rattus norvegicus [1] = test: Antiarthritic activity in Lewis rat model of complete Freund's adjuvant-induced arthritis assessed as reduction in TNFalpha expression in synovial tissues at 1 nmol/g administered intra-articularly into knee joint measured at 1 week by TNFalpha staining based immunohistochemical analysis; assay type: functional, organism-based
Rattus norvegicus [2] = test: Antiarthritic activity in Lewis rat model of complete Freund's adjuvant-induced arthritis assessed as increase in osteocytes within lacunae at 1 nmol/g administered intra-articularly into knee joint after 4 to 6 week by H and E staining based histopathological analysis; assay type: functional, organism-based

CC[C@H](C)[C@@H]1NC(=O)[C@H](Cc2c[nH]c3ccccc23)NC(=O)[C@H](Cc2c[nH]c3ccccc23)NC(=O)[C@@H](NC(=O)[C@H](CO)NC(=O)[C@H](Cc2ccccc2)NC(=O)[C@@H](NC(=O)CNC(=O)[C@@H](N)CC(C)C)C(C)C)CC(=O)NCCCC[C@@H](C(=O)N[C@@H](CC(C)C)C(=O)N[C@H](C(=O)O)C(C)C)NC1=O (H-LGVFSDWWIKLV-OH; lactam 6-10)
Activity (Rattus norvegicus [1]): Active
Activity (Rattus norvegicus [2]): Active
